# Values of other authors, collected in patent US7307164B2, “β-amino heterocyclic dipeptidyl peptidase inhibitors for the treatment or prevention of diabetes” (Merck & Co., Inc., priority 2002, dated 2007).
# Legend:
# [1] = tested on: hematopoiesis; conditions: mouse, cyclophosphamide-induced neutropenia
# [2] = tested on: cardiac allograft; conditions: rats; survival from day 7 to day 14
# [3] = target: T1, DP-IV (Homo sapiens, UniProt P27487)
# T1 construct: GRF is rapidly degraded in plasma to GRF[3-44]
# T1 sequence (P27487 whole entry): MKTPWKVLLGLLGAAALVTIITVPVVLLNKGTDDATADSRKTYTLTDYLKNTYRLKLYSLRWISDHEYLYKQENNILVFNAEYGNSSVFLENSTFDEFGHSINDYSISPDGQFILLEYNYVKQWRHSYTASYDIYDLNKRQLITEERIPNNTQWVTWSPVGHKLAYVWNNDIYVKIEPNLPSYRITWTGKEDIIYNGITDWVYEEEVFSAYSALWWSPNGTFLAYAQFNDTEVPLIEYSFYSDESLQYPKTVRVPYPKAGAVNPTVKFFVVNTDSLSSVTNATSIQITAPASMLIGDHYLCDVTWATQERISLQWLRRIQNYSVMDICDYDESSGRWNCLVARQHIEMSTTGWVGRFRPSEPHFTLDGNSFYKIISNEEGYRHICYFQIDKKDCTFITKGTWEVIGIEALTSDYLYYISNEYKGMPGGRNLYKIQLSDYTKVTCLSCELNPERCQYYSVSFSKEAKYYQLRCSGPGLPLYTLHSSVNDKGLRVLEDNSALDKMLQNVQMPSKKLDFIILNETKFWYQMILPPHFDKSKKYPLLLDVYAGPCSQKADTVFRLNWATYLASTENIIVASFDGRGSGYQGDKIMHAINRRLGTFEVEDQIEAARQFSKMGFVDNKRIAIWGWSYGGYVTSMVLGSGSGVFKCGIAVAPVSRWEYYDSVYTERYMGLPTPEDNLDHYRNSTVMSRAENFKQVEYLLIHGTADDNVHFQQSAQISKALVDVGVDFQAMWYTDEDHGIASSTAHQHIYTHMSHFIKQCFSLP
compound,measurement,setting,value
CC(C)[C@H](N)C(=O)N1CCC[C@H]1B(O)O [Val-Boro-Pro],hematopoiesis,[1],stimulated hematopoiesis
"CC(C)N1CCC(c2ccccc2)(c2ccccc2)CC1 [Prodipine, Pro-Pro-diphenyl-phosphonate]",cardiac allograft survival,[2],double cardiac allograft survival
CC[C@H](C)[C@H](N)C(=O)N1CCC[C@H]1C(=O)N[C@H](C(=O)O)[C@@H](C)CC [diprotin A],degradation of GRF in plasma to GRF[3-44],[3],prevented
